The values below come from patent US20220273666A1, “NANOPARTICLE FORMULATION OF BCL-2 INHIBITOR” (Recurium IP Holdings, LLC, priority 2019, published 2022).

The subject of series [1] is NCI-H146 cells. The series is described as follows: NCI-H146 cell proliferation assay (CellTiter-Glo). The class given is cell-based. To be noted: Homo sapiens, 72 h treatment, read-out: H146 CTG IC50. Here is the method: Cell proliferation was measured using the CellTiter-Glo® Luminescent Cell Viability Assay. The assay involved the addition of a single reagent (CellTiter-Glo® Reagent) directly to cells cultured in serum-supplemented medium. RS4;11 (ATCC, CRL-1873) cells were cultured according to ATCC recommendations and were seeded at 50,000 cells per well. NCI-H1963 cells (ATCC CRL-5982) were cultured according to ATCC recommendations and seeded at 12,000 cells per well. NCI-H146 (ATCC, HTB-173) cells were cultured according to ATCC recommendations and were seeded at 20,000 cells per well.
Each compound evaluated was prepared as a DMSO stock solution (10 mM). Compounds were tested in duplicate on each plate, with a 10-point serial dilution curve (1:3 dilution). Compound treatment (1.0 μL for RS4;11 and NCI-H1963, 10 μL for NCI-H146) was added from the compound dilution plate to the cell plate. The highest compound concentration was 10 μM (final), with a 0.1% final DMSO concentration. Plates were then incubated at 37° C., 5% CO2. After 48 h of compound treatment for RS4;11 or 72 h for NCI-H-1963 and NCI-H-146, cell plates were equilibrated at rt for approximately 30 mins. An equi-volume amount of CellTiter-G)® Reagent (40 (L for […] and NC-H1963, 100 μL for NCI-H-146)) was added to each well. Plates were mixed for 2 mins on an orbital shaker to induce cell lysis and then incubated at RT for 10 mins to stabilize the luminescent signal. Luminescence was recorded using a Envision or SpectraMax M5e plate reader according to CellTiter-Glo protocol. IC50 of each compound was calculated using GraphPad Prism by nonlinear regression analysis.

For series [2] the following is noted: Phase I/II clinical trials, chronic lymphocytic leukemia; cited from earlier work.
For series [3], the target named is Bcl-2 (Homo sapiens, UniProt P10415). The series is described as follows: Bcl-2/Bcl-XL HTRF assay.
Sequence of Bcl-2 (P10415 whole entry): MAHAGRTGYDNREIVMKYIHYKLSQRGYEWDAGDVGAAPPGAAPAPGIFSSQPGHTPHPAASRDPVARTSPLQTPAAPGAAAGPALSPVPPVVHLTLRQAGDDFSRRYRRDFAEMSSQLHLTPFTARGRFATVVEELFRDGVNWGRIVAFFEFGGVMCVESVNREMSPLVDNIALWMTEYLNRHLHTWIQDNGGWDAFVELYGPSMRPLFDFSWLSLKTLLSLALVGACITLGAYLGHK
Description: (§1) Binding to Bcl-2 proteins Bcl-2, and Bcl-XL was also assessed using an HTRF assay. […] This binding can be monitored by HTRF signals between anti-GST-Tb and FAM-peptide using GST-tagged Bcl proteins. Assay conditions: Bcl-2: 4 nM Bcl-2, 100 nM FAM-Bak peptide, Bcl-XL: 3 nM Bcl-XL, 40 nM FAM-Bad peptide in 20 mM K Phosphate, pH 7.5, 50 mM NaCl, 1 mM EDTA, 0.005% Triton X-100 and 1% DMSO (final). […] Compound stock solutions were added to protein solution using Acoustic technology. The compounds were then incubated with protein for 10 min at room temperature. The respective FAM labeled peptide was added and incubated for another 10 min and then anti-GST-Tb was added. After 60 min at rt, the HTRF fluorescence signal ratio was measured. Curve fits were performed in GraphPad Prism 4 with “sigmoidal dose-response (variable slope)”; 4 parameters with Hill Slope.
In series [4] the target is T1, Bcl-XL (Homo sapiens, UniProt Q07817).
T1 construct: host or cells: T7 phage in E. coli host derived from BL21
T1 sequence (Q07817 whole entry): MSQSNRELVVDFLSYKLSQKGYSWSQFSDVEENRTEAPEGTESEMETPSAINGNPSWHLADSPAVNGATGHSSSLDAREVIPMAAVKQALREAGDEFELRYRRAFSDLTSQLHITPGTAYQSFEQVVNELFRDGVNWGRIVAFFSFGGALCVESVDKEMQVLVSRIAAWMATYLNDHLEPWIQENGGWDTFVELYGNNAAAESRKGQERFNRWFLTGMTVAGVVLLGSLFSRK
The series is described as follows: Bcl-2/Bcl-XL HTRF assay. The class given is binding. To be noted: 3 nM Bcl-XL, 40 nM FAM-Bad peptide. A general note: Time-resolved FRET reads energy transfer from a long-lived donor to a nearby acceptor.
Description: as §1

For series [5] the following is noted: multiple oral administration under fed conditions; cited from earlier work.

For the compound `CC(C)OC1CCN(CC[C@H](CSc2ccccc2)Nc2ccc(S(=O)(=O)NC(=O)c3ccc(N4CCN(CC5=C(C67CC(C(F)F)(C6)C7)CC(C)(C)CC5)CC4)cc3)cc2S(=O)(=O)C(F)(F)F)CC1` [Example 106], in series [1], the IC50 was 100 to 1000 nM.
For `CC1(C)CCC(CN2CCN(c3ccc(C(=O)NS(=O)(=O)c4ccc(N[C@H](CCN5CCO[C@@H](CO)C5)CSc5ccccc5)c(S(=O)(=O)C(F)(F)F)c4)cc3)CC2)=C(C23CC(C(F)F)(C2)C3)C1` [Example 103], the half-inhibitory concentration (IC50) in series [1] fell in the range of 100 to 1000 nM.
For `CCOC1CCN(CC[C@H](CSc2ccccc2)Nc2ccc(S(=O)(=O)NC(=O)c3ccc(N4CCN(CC5=C(C67CC(C(F)F)(C6)C7)CC(C)(C)CC5)CC4)cc3)cc2S(=O)(=O)C(F)(F)F)CC1` [Example 105, (R)-4-(4-((2-(3-(difluoromethyl)bicyclo[1.1.1]pentan-1-yl)-4,4-dimethylcyclohex-1-en-1-yl)methyl)piperazin-1-yl)-N-((4-((4-(4-ethoxypiperidin-1-yl)-1-(phenylthio)butan-2-yl)amino)-((trifluoromethyl)sulfonyl)phenyl)sulfonyl)benzamide], in series [1], the IC50 is no more than 100 nM.
Same read-out and setting: the result for `CC(C)N1CCN(CC[C@H](CSc2ccccc2)Nc2ccc(S(=O)(=O)NC(=O)c3ccc(N4CCN(CC5=C(C67CC(C(F)F)(C6)C7)CC(C)(C)CC5)CC4)cc3)cc2S(=O)(=O)C(F)(F)F)CC1` [Example 107, (R)-4-(4-((2-(3-(difluoromethyl)bicyclo[1.1.1]pentan-1-yl)-4,4-dimethylcyclohex-1-en-1-yl)methyl)piperazin-1-yl)-N-((4-((4-(4-isopropylpiperazin-1-yl)-1-(phenylthio)butan-2-yl)amino)-3-((trifluoromethyl)sulfonyl)phenyl)sulfonyl)benzamide] reads no more than 100 nM.
In the case of `CC1(C)CCC(c2ccc(Cl)cc2)=C(CN2CCN(c3ccc(C(=O)NS(=O)(=O)c4ccc(N[C@H](CCN5CCOCC5)CSc5ccccc5)c(S(=O)(=O)C(F)(F)F)c4)cc3)CC2)C1` [ABT-263, Navitoclax, reference compound], in series [2], the “side effect limiting dosage” value is “occurrence of thrombocytopenia”. Also, in series [1], the IC50 was no more than 100 nM.
As for `CCC12CC(C3=C(CN4CCN(c5ccc(C(=O)NS(=O)(=O)c6ccc(N[C@H](CCN7CCC(OC)CC7)CSc7ccccc7)c(S(=O)(=O)C(F)(F)F)c6)cc5)CC4)CCC(C)(C)C3)(C1)C2` [Example 108, (R)-4-(4-((2-(3-ethylbicyclo[1.1.1]pentan-1-yl)-4,4-dimethylcyclohex-1-en-1-yl)methyl)piperazin-1-yl)-N-((4-((4-(4-methoxypiperidin-1-yl)-1-(phenylthio)butan-2-yl)amino)-3-((triluoromethyl)sulfonyl)phenyl)sulfonyl)benzamide], in series [1], the half-inhibitory concentration (IC50) is no more than 100 nM.
Same read-out and setting: next, `CC1(C)CCC(CN2CCN(c3ccc(C(=O)NS(=O)(=O)c4ccc(N[C@H](CCN5CCO[C@H](CO)C5)CSc5ccccc5)c(S(=O)(=O)C(F)(F)F)c4)cc3)CC2)=C(C23CC(C(F)F)(C2)C3)C1` [Example 102]: no more than 100 nM.
As for `COC(=O)C1(C)CCN(CC[C@H](CSc2ccccc2)Nc2ccc(S(=O)(=O)NC(=O)c3ccc(N4CCN(CC5=C(C67CC(C(F)F)(C6)C7)CC(C)(C)CC5)CC4)cc3)cc2S(=O)(=O)C(F)(F)F)CC1` [Example 104, (R)-Methyl 1-(3-((4-(N-(4-(4-((2-(3-(difluoromethyl)bicyclo[1.1.1]pentan-1-yl)-4,4-dimethylcyclohex-1-en-1-yl)methyl)piperazin-1-yl)benzoyl)sulfamoyl)-2-((trifluoromethyl)sulfonyl)phenyl)amino)-4-(phenylthio)butyl)-4-methylpiperidine-4-carboxylate], the IC50 was less than 10 nM in series [3], less than 10 nM in series [4] and no more than 100 nM in series [1].
Take `CC1(C)CCC(CN2CCN(c3ccc(C(=O)NS(=O)(=O)c4ccc(N[C@H](CCN5CCCC5)CSc5ccccc5)c(S(=O)(=O)C(F)(F)F)c4)cc3)CC2)=C(C23CC(C(F)F)(C2)C3)C1` [Example 100, (R)-4-(4-((2-(3-(difluoromethyl)bicyclo[1.1.1]pentan-1-yl)-4,4-dimethylcyclohex-1-en-1-yl)methyl)piperazin-1-yl)-N-((4-((1-(phenylthio)-4-(pyrrolidin-1-yl)butan-2-yl)amino)-3-((trifluoromethyl)sulfonyl)phenyl)sulfonyl)benzamide]: the IC50 is less than 10 nM in series [3], less than 10 nM in series [4] and no more than 100 nM in series [1].
For `CN1CCN(CC[C@H](CSc2ccccc2)Nc2ccc(S(=O)(=O)NC(=O)c3ccc(N4CCN(CC5=C(C67CC(C(F)F)(C6)C7)CC(C)(C)CC5)CC4)cc3)cc2S(=O)(=O)C(F)(F)F)CC1` [Example 98, (R)-4-(4-((2-(3-(difluoromethyl)bicyclo[1.1.1]pentan-1-yl)-4,4-dimethylcyclohex-1-en-1-yl)methyl)piperazin-1-yl)-N-((4-((4-(4-methylpiperazin-1-yl)-1-(phenylthio)butan-2-yl)amino)-3-((trifluoromethyl)sulfonyl)phenyl)sulfonyl)benzamide], the figures for the IC50 in series [3], in series [4] and in series [1] were less than 10 nM, less than 10 nM and 100 to 1000 nM, respectively.
With `COC1(C)CCN(CC[C@H](CSc2ccccc2)Nc2ccc(S(=O)(=O)NC(=O)c3ccc(N4CCN(CC5=C(C67CC(C(F)F)(C6)C7)CC(C)(C)CC5)CC4)cc3)cc2S(=O)(=O)C(F)(F)F)CC1` [Example 101], the IC50 in series [1] is no more than 100 nM.
As for `CC1(C)CCC(CN2CCN(c3ccc(C(=O)NS(=O)(=O)c4ccc(NCC5CCOCC5)c([N+](=O)[O-])c4)c(Oc4cnc5[nH]ccc5c4)c3)CC2)=C(c2ccc(Cl)cc2)C1` [ABT-199, venetoclax], in series [5], the “time to maximum plasma concentration” value was 5 to 8 h.
On to `COC1CCN(CC[C@H](CSc2ccccc2)Nc2ccc(S(=O)(=O)NC(=O)c3ccc(N4CCN(CC5=C(C67CC(C(F)F)(C6)C7)CC(C)(C)CC5)CC4)cc3)cc2S(=O)(=O)C(F)(F)F)CC1` [Example 99, (R)-4-(4-((2-(3-(difluoromethyl)bicyclo[1.1.1]pentan-1-yl)-4,4-dimethylcyclohex-1-en-1-yl)methyl)piperazin-1-yl)-N-((4-((4-(4-methoxypiperidin-1-yl)-1-(phenylthio)butan-2-yl)amino)-3-((trifluoromethyl)sulfonyl)phenyl)sulfonyl)benzamide], for which the results for the IC50 in series [3], in series [4] and in series [1] were less than 10 nM, less than 10 nM and no more than 100 nM, respectively.

What is called IC50 is the concentration that inhibits the measured activity by half.
